Measured values: patent publication US12686853B2, “Methods and compositions for treatment of muscle disease with iPSC-induced human skeletal muscle stem cells” (UNIVERSITY OF MASSACHUSETTS, priority 2020, dated 2026)
Entries after “also recorded” stand apart in the source; their conditions may differ.

What was measured:
Assay type in all cases: cell-based, human
[1] = system: DUX4; assay: 24 hr 5-AzaC pulse of FSHD iPM (S2 cells), qPCR of MBD3L2 and MYH8 RNA
Description: (§1) FIG. 11E: qPCR assays of the expression of DUX4 target gene (MBD3L2) RNA and a muscle gene (MYH8) RNA of S2 cells (top panel) and iMyoblasts (bottom panel) following 24 hr treatment with increasing doses of 5-AzaC. 5-AzaC-treated S2 cultures were cultured for 6 days of S2 growth medium (GM) and 7 days in S3 differentiation medium (DM). 5-AzaC-treated iMyoblasts were cultured for 6 days in myoblast growth medium (GM) and 4 days in Opti-MEM differentiation medium. qPCR data were normalized to RPL13A and relative expression is shown normalized to […].
To investigate epigenetic mechanisms responsible for DUX4 repression during reprogramming and iPM induction, a blinded screen was conducted to identify epigenetic drugs that activate DUX4 in FSHD iPM undergoing myogenesis.
iPMs were treated for 24 hr with a pulse of epigenetic drugs, followed by culturing for 7 days in iPM growth medium and 7 days of iPMC differentiation medium. The cultured iPMs were then subjected to qPCR analysis to determine the expression of MBD3L2 RNA (a DUX4 biomarker) and MYH8 RNA (a muscle differentiation marker data now shown). […] See, FIG. 11D. […]
For quantification of housekeeping genes, DUX4 biomarker or muscle differentiation marker expression, 20 ng of cDNA was used for each reaction. For quantification of DUX4 expression, 90-150 ng of cDNA was used in each reaction.

[2] = system: DUX4; assay: 5-AzaC treatment of FSHD ESC iPMs; conditions: data not shown
Description: iPMs were treated for 24 hr with a pulse of epigenetic drugs, followed by culturing for 7 days in iPM growth medium and 7 days of iPMC differentiation medium. The cultured iPMs were then subjected to qPCR analysis to determine the expression of MBD3L2 RNA (a DUX4 biomarker) and MYH8 RNA (a muscle differentiation marker data now shown). […] See, FIG. 11D. […] et al., (2015). […] See, FIG. 11D.

[3] = system: DUX4; assay: 5-AzaC treatment of proliferating iMyoblasts, qPCR in myotubes; conditions: lower concentrations
Description: as §1
iPMs were treated for 24 hr with a pulse of epigenetic drugs, followed by culturing for 7 days in iPM growth medium and 7 days of iPMC differentiation medium. The cultured iPMs were then subjected to qPCR analysis to determine the expression of MBD3L2 RNA (a DUX4 biomarker) and MYH8 RNA (a muscle differentiation marker data now shown). […] See, FIG. 11D. At high 5-AzaC concentrations, MYH8 RNA expression decreased. […] Rickard et al., (2015). […] See, FIG. 11D.
Ribonucleic acid (RNA) was isolated either from cells in culture or from xenoengrafted TA muscles using the RNeasy® Plus Mini Kit (Qiagen) or Aurum® Total RNA Fatty and Fibrous Tissue kit (Bio-Rad) respectively per the manufacturer's specifications. […]

[4] = system: genome; assay: Genome-wide methylome analysis using Illumina chip assays after 5-AzaC treatment; conditions: data not shown
[5] = system: DUX4 target gene; assay: Losmapimod treatment of FSHD1 iMyotubes, NanoString digital RNA assays; design: dose or concentration left out as unconfirmed; conditions: Pre- or Post-differentiation treatment with Losmapimod, N2 medium
Excerpt: FIG. 21A: Schematic of Losmapimod treatment protocols for Pre-drug administration at the initiation of iMyotube differentiation and at Post iMyotube differentiation after 4 days in N2 differentiation medium. FIG. 21B: NanoString digital RNA assays of DUX4 target gene and muscle gene expression in carrier treated (UT) FSHID1 iMyoblasts and in iMyotube cultures Pre- or Post-differentiation treatment with […] Losmapimod. Normalized counts of expression are presented on linear scale with each dot corresponding to an individual culture. Data are presented as mean±SEM for each condition. For NanoString RNA quantification, 50 ng or 150 ng of total RNA was used for cell culture and xenografted TA muscle, respectively. A muscle NanoString panel was constructed with human specific probes for muscle protein genes, muscle master regulatory genes, developmental transcription factors, signaling genes and multiple housekeeping genes and used for all analysis on an nCounter SprintR profiler (NanoString Technologies, Seattle, WA). Raw mRNA counts were normalized to a series of housekeeping genes (e.g., RPL13A, GAPDH, GUUSB, and VCP) using nSolverR software (NanoString Technologies, Seattle, WA).

| Structure (SMILES) | DUX4 expression, as assayed by MBD3L2 RNA biomarker expression ([1]; 24 hr pulse, then 7 days iPM growth medium and 7 days iPMC differentiation medium, qPCR) | MYH8 RNA expression ([1]; high 5-AzaC concentrations) | DUX4 expression [2] | DUX4 biomarker expression in myotubes [3] | demethylation, genome-wide methylome analysis [4] | DUX4 target gene expression [5] |
| --- | --- | --- | --- | --- | --- | --- |
| Nc1ncn([C@@H]2O[C@H](CO)[C@@H](O)[C@H]2O)c(=O)n1 [5-AzaC, 5-azacytidine] | effectively increased DUX4 expression in a concentration dependent manner; also recorded: can be reversed | decreased | high levels of DUX4 expression | only a small increase | selective demethylation of many sequences throughout the genome |  |
| Cc1c(F)cc(C(=O)NC2CC2)cc1-c1ccc(C(=O)NCC(C)(C)C)cn1 [Losmapimod] |  |  |  |  |  | decreases; also recorded: inhibited |
